Results: PMC8624133, “10th Trends in Medical Mycology Held on 8 to 11 October 2021, Aberdeen, Scotland, Organized by the European Confederation of Medical Mycology (ECMM)” (Journal of Fungi, 2021)
Converted amounts (≈) assume the structure as drawn.

Tests used:
[1] = system: C. albicans; assay type: cell-based, Candida albicans
[2] = system: C. parapsilosis; assay type: cell-based, Candida parapsilosis
[3] = system: C. glabrata; assay type: cell-based, Candida glabrata
[4] = system: C. tropicalis; assay type: cell-based, Candida tropicalis
[5] = system: C. krusei; assay type: cell-based, Candida krusei
[6] = system: Other species of Candida; assay type: cell-based, Candida spp.
[7] = system: Sporothrix brasiliensis; assay: Murine subcutaneous sporotrichosis model; assay type: in vivo, Balb/c mice
Method: Materials & Methods: 50 Balb/c mice, male, five to seven-week-old, were subcutaneous infected (left footpad) by a clinical isolate of S. brasiliensis (5.4 × 10^7 yeast/mice). Treatments started seven days post-inoculation (p.i) in all five groups (10 mice/each): G1 control group (placebo—receiving just the diluent of the drugs), G2 treatment group (itraconazole—ITZ 50 mg/kg); G3 to G5 DD treatment groups, 1, 5 and 10 mg/kg, respectively. All mice were treated once a day by oral gavage, for 30 consecutive days. Physical conditions and behavior were daily evaluated, and individual weight was weekly determined. At the 32nd day p.i. (48 h after the end of the treatments) animals were euthanasied and lung, liver, brain, kidneys, testicle and footpad were recovered aseptically and homogenized to mycological analysis. Fungal burden in each organ was measured by quantitatively counting colony-forming units (CFU). The determination of colony forming units (CFU)/gram of tissue (g) of S. brasiliensis in internal organs of groups were compared by non-parametric tests using Kruskal-Wallis combined with Wilcoxon. The weight loss assay was calculated considering the percentage of loss and/or increase between the value corresponding to the fungal inoculation day and to the end of the treatment.

[8] = system: R. delemar 99–880; assay: CLSI M38 in vitro susceptibility; assay type: cell-based, Rhizopus delemar
Method: (§1) Methods & Materials: In vitro susceptibility was conducted by the CLSI M38 method using a clinical isolate of Rhizopus delemar (a common cause of mucormycosis). ICR mice were immunosuppressed with cyclophosphamide and cortisone acetate on days −2, +3, and +8, relative to infection with intratracheally instilled R. delemar. […] Mice survival through Day +21 served as the primary endpoint.

[9] = system: R. delemar; assay: Murine mucormycosis, immunosuppressed mice infected intratracheally; assay type: in vivo, ICR mice; details: n = 20/arm
Method: as §1

[10] = system: Rhizopus oryzae; assay: Pandemic Box screening, EUCAST protocol; assay type: cell-based; details: for inhibition of R. oryzae growth: 5 µM
Method: (§2) Materials & Methods: An initial screening of the 400 compounds (5 µM) in this collection was performed with the Rhizopus oryzae, according to the EUCAST protocol. Compounds with activity against R. oryzae have also been tested against other mucormycosis etiological agents (Rhizopus microsporus e Rhizopus stolonifer) at concentrations ranging from 0.08 µM to 20 µM.

[11] = system: three Rhizopus species; assay: MIC and fungicidal activity; assay type: cell-based, Rhizopus oryzae, R. microsporus, R. stolonifer; details: for MIC: 0.08 µM to 20 µM tested
Method: as §2

[12] = system: McLDM strains; assay: EUCAST MIC, S. cerevisiae overexpressing M. circinelloides LDM, resistance phenotypes; assay type: cell-based, Saccharomyces cerevisiae
[13] = system: Trichophyton spp.; assay: Agar-based screening method; assay type: cell-based; details: 0.5 McF, 5 days, 30 °C
Method: Inter-experimental variation was evaluated by testing 10 isolates on three different days. Single-centre validation: After determining the optimal conditions for the agar screening method, 112 molecularly identified Trichophyton spp. clinical isolates were tested.

[14] = system: clinical dermatophyte isolates; assay: Inhibition of dermatophyte biofilm formation; assay type: cell-based
Method: Materials and Methods: The study population consisted of 50 dermatophyte isolates that were collected from 2019 to 2020 from patients referred to the two mycology laboratory of Shiraz, Iran. The isolates were identified by ITS gene region sequencing. The suspension (equivalent to 0.5 McFarland) of the isolates was used to evaluate the ability of the isolates to form biofilms and also the effect of itraconazole, terbinafine and griseofulvin at concentrations of 2–32 μg/mL on inhibiting biofilm formation. Two optical microscope and a scanning electron microscope were used to study the microscopic structure of biofilms formed on the surface of 96-well plate wells.

[15] = system: refractory fungal disease; assay: FURI Phase 3 open-label study, refractory subset; assay type: in vivo, human; details: 44 refractory patients
Source text: Methods: FURI patients were eligible for enrollment if they have proven or probable, severe mucocutaneous candidiasis, invasive candidiasis or invasive aspergillosis and documented evidence of failure, intolerance, or toxicity related to a currently approved standard-of-care antifungal treatment or could not receive approved oral antifungal options (e.g., susceptibility of the organism) and continued IV antifungal therapy was clinically undesirable or unfeasible.

[16] = system: invasive and mucocutaneous fungal infections; assay: FURI and CARES open-label studies combined; assay type: in vivo, human; details: 84 patients
Source text: Methods: FURI subjects were eligible for enrollment if they had proven or probable severe mucocutaneous candidiasis, invasive candidiasis, invasive aspergillosis, or other fungal diseases with evidence of treatment failure, intolerance, or toxicity related to a currently approved standard-of-care antifungal treatment or if they were unable to receive an approved oral antifungal option (e.g., susceptibility of the organism) and a continued IV antifungal therapy was clinically undesirable or unfeasible.

[17] = system: Exophiala phaeomuriformis; assay: MIC, CLSI M27-A3; assay type: cell-based; details: read-out: MIC values
Method: Materials & Methods: The aviation kerosone samples came from an aviation company in Porto Alegre, state of Rio Grande do Sul, Brazil. The fungi isolation was carried out using the modified ASTM D6974-09 Standard. In this procedure, 500 mL kerosene samples were filtered, in triplicate, under aseptic conditions, under vacuum, using a 0.22 μm membrane (Millipore). After filtering, the membranes were deposited in potato dextrose agar culture medium. The plates were incubated in an oven at 30 °C for seven days. After this period, the colonies were isolated in new culture media for purification of the isolates. Molecular identification was performed through the sequencing of ITS DNA regions. The profile of sensitivity to clinical antifungals was assessed following protocols M27-A3 of the Clinical and Laboratory Standards Institute (CLSI).

[18] = system: serious or life-threatening pulmonary aspergillosis; assay: Special Needs program: inhaled opelconazole in patients; assay type: in vivo, human
Source text: Opelconazole has been supplied to patients with serious or life-threatening pulmonary aspergillosis who have not responded to available mold-active therapies under a Special Needs program regulated in the United Kingdom by the Medicines and Healthcare products Regulatory Agency. Successful outcomes in the first two patients who developed invasive pulmonary aspergillosis due to infections with A. fumigatus complex shortly after lung transplantation have been reported [Pagani 2020].

[19] = following inhaled delivery, ref Colley T et al., 2017, 2019; cited from earlier work
Source text: A potent, effective inhaled anti-fungal agent with prolonged lung tissue residence and minimal systemic […] would be a valuable adjunct to current therapeutic options. To date, treatment using inhaled antifungal agents has been limited to repurposing available systemic medicines. Opelconazole is a novel triazole antifungal agent which was specifically designed for inhaled use and which is being developed as an inhaled treatment for pulmonary fungal disease.

[20] = system: A. fumigatus (resistant to posaconazole strain v79-63); assay: Neutropenic animal model of invasive pulmonary aspergillosis; assay type: in vivo, CD-1 mice
[21] = 11 treated patients and 1 on prophylaxis

Q: Which “I (intermediate) isolates, n (%)” value [1] does the source give for `Nc1nc(=O)[nH]cc1F` [5-FC, 5-flucytosine] here?
A: 1 (0.5%)

Q: And the “R (resistant) isolates, n (%)” value [1]?
A: 2 (1%)

Q: What about the “S (sensitive) isolates, n (%)” value [1] of the same molecule?
A: 199 (98.5%)

Q: And the “I (intermediate) isolates, n (%)” value [2]?
A: 1 (0.6%)

Q: What about the “R (resistant) isolates, n (%)” value [2] of the same molecule?
A: 2 (01.2%)

Q: What about the “S (sensitive) isolates, n (%)” value [2] of the same molecule?
A: 170 (98.3%)

Q: And the “I (intermediate) isolates, n (%)” value [3]?
A: 0 (0%)

Q: What about the “R (resistant) isolates, n (%)” value [3] of the same molecule?
A: 0 (0%)

Q: What about the “S (sensitive) isolates, n (%)” value [3] of the same molecule?
A: 71 (100%)

Q: And the “I (intermediate) isolates, n (%)” value [4]?
A: 0 (0%)

Q: And the “R (resistant) isolates, n (%)” value [4]?
A: 0 (0%)

Q: And the “S (sensitive) isolates, n (%)” value [4]?
A: 57 (100%)

Q: What about the “I (intermediate) isolates, n (%)” value [5] of the same molecule?
A: 3 (42.9%)

Q: What about the “R (resistant) isolates, n (%)” value [5] of the same molecule?
A: 3 (42.9%)

Q: And the “S (sensitive) isolates, n (%)” value [5]?
A: 1 (14.3%)

Q: And the “I (intermediate) isolates, n (%)” value [6]?
A: 0 (0%)

Q: What about the “R (resistant) isolates, n (%)” value [6] of the same molecule?
A: 0 (0%)

Q: What about the “S (sensitive) isolates, n (%)” value [6] of the same molecule?
A: 26 (100%)

Q: Which results are given for `c1ccc([Se][Se]c2ccccc2)cc1` [DD, Diphenyl diselenide]?
A: weight loss during treatment vs control group ([7]; DD 5 mg/kg): statistically higher rate of weight loss; fungal burden of internal organs vs placebo group ([7]; oral gavage once a day, 30 days, ITZ 50 mg/kg, DD 1, 5 or 10 mg/kg): higher fungal burdens

Q: Which results are given for `CC(C)[C@@H](C)[C@@]1(C)CC[C@]2(C)[C@H]3CC[C@@H]4[C@@]5(COC[C@@]4(C)[C@@H](OC[C@](C)(N)C(C)(C)C)[C@H](n4ncnc4-c4ccncc4)C5)C3=CC[C@@]2(C)[C@@H]1C(=O)O` [IBREXA, Ibrexafungerp]?
A: minimum effective concentration (MEC) [8]: > 8 µg/mL; % Survival ([9]; through Day +21, placebo 0): 35%; Median Survival ([9]; treatment from 24 h post infection, IBREXA 30 mg/kg po BID 7 d, LAMB 10 mg/kg iv 4 d, POSA 30 mg/kg po QD 7 d, placebo 8): 15 days

Q: For `Oc1c(C(Nc2nc3ccccc3s2)c2ccc(OC(F)F)cc2)ccc2cccnc12` (stereo not shown) [MMV019724], which “inhibition of R. oryzae growth” value [10] is on record?
A: more than 50%

Q: With `COc1cc(NS(=O)(=O)c2ccc(C)cc2)c2ncccc2c1` [MMV098836] as the molecule, how does the “inhibition of R. oryzae growth” value [10] read?
A: more than 50%

Q: Which results are given for `CCCCC(CC)CNC(=N)NC(=N)NCCCCCCNC(=N)NC(=N)NCC(CC)CCCC` (stereo not shown) [MMV396785, Alexidine]?
A: inhibition at 5 µM ([10]; Rhizopus arrhizus, read-out: inhibition of R. oryzae growth): > 50%; fungicidal activity [11]: 10 µM; MIC ([11]; Rhizopus): 0.63 to 1.25 µM (≈ 0.321 to 0.636 µg/mL)

Q: Which “inhibition of R. oryzae growth” value [10] does the source give for `Oc1cccc(C(Nc2nccs2)c2ccc3cccnc3c2O)c1` (stereo not shown) [MMV642550] here?
A: more than 50%

Q: For `c1cc(CN2CCCNCCNCCCNCC2)ccc1CN1CCCNCCNCCCNCC1` [MMV1580502], which “inhibition of R. oryzae growth” value [10] is on record?
A: more than 50%

Q: Which results are given for `CCc1nc(N)nc(N)c1C#CC(C)c1cc(OC)cc(-c2ccncc2)c1` (stereo not shown) [MMV1580844]?
A: inhibition of R. oryzae growth [10]: more than 50%; fungicidal activity [11]: did not show fungicidal activity; MIC [11]: 0.08 µM (≈ 0.0299 µg/mL)

Q: With `Cc1cccc(C)c1C(=O)Nc1nc(-c2ccccn2)cc2ccccc12` [MMV1581558] as the molecule, how does the “inhibition of R. oryzae growth” value [10] read?
A: more than 50%

Q: Which resistance characteristics [12] does the source give for `CC(C)(C)C(O)C(Oc1ccc(Cl)cc1)n1cncn1` (stereo not shown) [TDM, triadimenol] here?
A: same resistance characteristics as FLC

Q: With `CCC(C)(C)c1ccc(CC(C)CN2C[C@@H](C)O[C@@H](C)C2)cc1` (stereo partly shown) [amorolfine] as the molecule, how does the “optimal agar concentration preventing growth of WT isolates” value [13] read?
A: 0.5 mg/L

Q: Which results are given for `COC1=CC(=O)C[C@@H](C)[C@]12Oc1c(Cl)c(OC)cc(OC)c1C2=O` [griseofluvin, griseofulvin]?
A: IC50 ([14]; inhibition of biofilm formation, read-out: mean concentrations of IC50): 3.18 µg/mL (≈ 9.01 µM); samples with IC50 in concentration <2 ([14]; tested at 2–32 μg/mL): 66%

Q: With `CC(C)[C@@H](C)[C@@]1(C)CC[C@]2(C)[C@H]3CC[C@@H]4[C@@]5(COC[C@@]4(C)[C@@H](OC[C@](C)(N)C(C)(C)C)[C@H](n4ncnc4-c4ccncc4)C5)C3=CC[C@@]2(C)[C@@H]1C(=O)O` [ibrexafungerp, Ibrexafungerp] as the molecule, how does the progression of disease [15] read?
A: 6.8%

Q: What about the stable disease [15] of the same molecule?
A: 22.7%

Q: What about the “complete response, partial response or clinical improvement” value ([15]; oral, DRC-determined) of the same molecule?
A: 59.1%

Q: And the progression of disease [16]?
A: 5.9%

Q: What about the stable disease [16] of the same molecule?
A: 27.1%

Q: And the “complete response, partial response and clinical improvement” value ([16]; oral, DRC-determined)?
A: 65.1%

Q: With `CC(=O)N1CCN(c2ccc(OCC3COC(Cn4ccnc4)(c4ccc(Cl)cc4Cl)O3)cc2)CC1` (stereo not shown) [ketoconazole] as the molecule, how does the MIC [17] read?
A: 125 µg/mL (≈ 235 µM)

Q: With `Cc1cc(N2CCN(c3ccc(C(=O)Nc4ccc(F)cc4)cc3)CC2)ccc1OC[C@@H]1CO[C@@](Cn2cncn2)(c2ccc(F)cc2F)C1` [opelconazole] as the molecule, how does the drug-drug interactions [18, 21] read?
A: no drug-drug interactions reported

Q: And the tolerability [18, 21]?
A: generally well tolerated

Q: And the “Favorable responses at 3 months” value ([18]; patients who received opelconazole as treatment after no response to mold-active therapies, number of patients)?
A: 9 out of the 11

Q: And the “local concentrations in the lung” value [19]?
A: high

Q: What about the systemic bioavailability [19] of the same molecule?
A: minimal

B1: IL-18: Mouse cytokine IL-18 (protein, UniProt P70380 36-192, looked up)
Interleukin-18: NFGRLHCTTAVIRNINDQVLFVDKRQPVFEDMTDIDQSASEPQTRLIIYMYKDSEVRGLAVTLSVKDSKMSTLSCKNKIISFEEMDPPENIDDIQSDLIFFQKRVPGHNKMEFESSLYEGHFLACQKEDDAFKLILKKKDENGDKSVMFTLTNLHQS
Q: Which results are given for B1?
A: log10CFU/lung ([20]; mean ± SEM, 3 animals treated for 3 d, placebo 6.1 ± 0.08): 4.82 ± 0.44 log10CFU/lung; survival rates ([20]; survival recorded until 15 d, IL-18 10 ng/mouse intranasally daily -2 d till +7 d, posaconazole 16 mg/kg/day, groups of 10, control 20%): 56%
